Results on 20 compounds are retold here after patent publication US20240335431A1, “1-H-PYRROLO[2,3-c]PYRIDINE COMPOUNDS” (Acerta Pharma B.V., priority 2023, published 2024).

Like-named read-outs stand apart in the source and are kept apart here.

The nature of data set [1]: Human liver microsomes (HLMs) intrinsic clearance assay. It is filed as in vitro ADME. The following applies: human, microsomes; for HLM CLint: 1 µM, pH 7.4.
In another data set the target is hERG (Homo sapiens (Human), UniProt Q12809). Nature of the data set: hERG assay 1 (standard), SyncroPatch 384PE. It counts as cell-based. The note with it: CHO cells, room temperature, up to 40 uM. The method, boiled down:
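Automated patch clamp on hERG-expressing CHO-K1 cells at room temperature, +60/−40 mV protocol every 15 s. Six-point cumulative concentrations 139 nM to 40 uM (0.33% DMSO final); IC50 from one-site fit of % inhibition. Wells required ≥30 MegaOhm seal, current >0.2 nA, Z prime >0.4.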
Background: The hERG channel carries a current that helps repolarise heart muscle cells.

The next data set concerns MV4;11 cells. The data set is described as follows: Proliferation assay, MV4;11 (CellTiter-Glo, 7 days). It counts as cell-based, human. The following applies: read-out: MV-4-11 IC50. The method in brief: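 Cells were seeded at line-specific low densities for linear growth, exposed to 3.16-fold serial compound dilutions at 0.1% DMSO, and incubated 7 days at 37 °C, 5% CO2. Viability was read by CellTiter-Glo 2.0 luminescence; IC50 came from one-site fits of % inhibition, normalized between DMSO-treated cells (100%) and a day-0 plate (0%).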
On the technique in general: ATP-based viability assays read luminescence as a measure of living cells.

The mark [2] stands for this setting: pH 7.4, 1 mg/mL HLM, NADPH, read-out: HLM CLint.

hERG, sequence (Q12809 whole entry): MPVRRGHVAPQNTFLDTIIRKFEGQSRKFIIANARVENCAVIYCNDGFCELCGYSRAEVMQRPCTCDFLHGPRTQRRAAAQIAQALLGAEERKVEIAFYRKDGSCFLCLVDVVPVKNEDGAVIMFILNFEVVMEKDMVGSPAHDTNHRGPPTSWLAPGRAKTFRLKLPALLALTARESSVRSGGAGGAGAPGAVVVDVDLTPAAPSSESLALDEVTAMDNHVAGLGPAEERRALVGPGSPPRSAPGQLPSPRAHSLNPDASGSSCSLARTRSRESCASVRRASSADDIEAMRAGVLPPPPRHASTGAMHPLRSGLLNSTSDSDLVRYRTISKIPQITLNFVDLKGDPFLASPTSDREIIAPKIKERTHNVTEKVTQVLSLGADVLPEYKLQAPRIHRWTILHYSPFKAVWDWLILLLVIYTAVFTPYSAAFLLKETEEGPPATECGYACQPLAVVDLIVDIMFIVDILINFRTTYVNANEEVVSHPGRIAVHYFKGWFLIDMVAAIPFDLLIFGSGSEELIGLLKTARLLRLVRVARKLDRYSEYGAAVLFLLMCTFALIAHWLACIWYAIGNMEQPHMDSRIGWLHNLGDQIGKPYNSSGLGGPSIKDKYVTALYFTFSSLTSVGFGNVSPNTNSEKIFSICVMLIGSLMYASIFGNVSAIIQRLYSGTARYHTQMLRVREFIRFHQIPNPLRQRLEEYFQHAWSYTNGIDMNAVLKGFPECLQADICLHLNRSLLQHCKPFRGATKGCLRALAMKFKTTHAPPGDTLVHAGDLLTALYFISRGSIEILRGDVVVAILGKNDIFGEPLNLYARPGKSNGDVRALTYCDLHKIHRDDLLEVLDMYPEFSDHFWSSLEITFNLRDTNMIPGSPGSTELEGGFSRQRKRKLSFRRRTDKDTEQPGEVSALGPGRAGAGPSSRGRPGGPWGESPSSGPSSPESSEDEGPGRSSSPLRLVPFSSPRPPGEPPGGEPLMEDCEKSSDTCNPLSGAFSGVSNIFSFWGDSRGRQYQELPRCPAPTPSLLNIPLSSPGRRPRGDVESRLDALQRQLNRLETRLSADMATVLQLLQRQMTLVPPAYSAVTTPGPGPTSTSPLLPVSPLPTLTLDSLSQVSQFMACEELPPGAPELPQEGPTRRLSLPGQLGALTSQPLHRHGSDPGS

One may read the IC50 as the concentration that gives 50% inhibition. `CCN(C(=O)c1cc(F)ccc1-n1cc(C(=O)C2CCN(C(=O)[C@H]3NC[C@@H]4C[C@@H]43)CC2)c2ccncc21)C(C)C` [Example 28, 2-(3-(1-((1S,2S,5R)-3-Azabicyclo[3.1.0]hexane-2-carbonyl)piperidine-4-carbonyl)-1H-pyrrolo[2,3-c]pyridin-1-yl)-N-ethyl-5-fluoro-N-isopropylbenzamide] returned a microsomal CLint at 1 µM in data set [1] (pH 7.4, HLM CLint) of 41 µL/min/mg. Further, the IC50 at hERG was more than 40000 nM; in the data set with MV4;11 cells (Homo sapiens, MV4-11, 168 h) it was 34 nM.
In the case of `CC(C)N(C(=O)c1cc(F)ccc1-n1cc(C(=O)C2CCN(C(=O)[C@@H]3CCC4(CC4)N3)CC2)c2ccncc21)C(C)C` [Example 24, (S)-2-(3-(1-(4-Azaspiro[2.4]heptane-5-carbonyl)piperidine-4-carbonyl)-1H-pyrrolo[2,3-c]pyridin-1-yl)-5-fluoro-N,N-diisopropylbenzamide], the microsomal CLint at 1 µM in data set [1] (setting [2]) is 145 µL/min/mg. In addition, the IC50 at hERG was found to be 38300 nM; in the data set with MV4;11 cells (Homo sapiens, MV4-11, 168 h) it was 20 nM.
For `CC(C)N(C(=O)c1cc(F)ccc1-n1cc(C(=O)C2CCN(C(=O)[C@H]3N[C@@H]4CC[C@H]3C4)CC2)c2ccncc21)C(C)C` [Example 16, 2-(3-(1-((1R,3S,4S)-2-Azabicyclo[2.2.1]heptane-3-carbonyl)piperidine-4-carbonyl)-1H-pyrrolo[2,3-c]pyridin-1-yl)-5-fluoro-N,N-diisopropylbenzamide], the microsomal CLint at 1 µM in data set [1] (pH 7.4, HLM CLint) was determined as 27 µL/min/mg. The IC50 is more than 40000 nM on hERG and 29 nM in the data set on MV4;11 cells (Homo sapiens, MV4-11, 168 h).
The corresponding values for `CC(C)N(C(=O)c1cc(F)ccc1-n1cc(C(=O)C2CCN(C(=O)[C@H]3NC[C@@H]4C[C@@H]43)CC2)c2ccncc21)C(C)C` [Example 19, 2-(3-(1-((1S,2S,5R)-3-Azabicyclo[3.1.0]hexane-2-carbonyl)piperidine-4-carbonyl)-1H-pyrrolo[2,3-c]pyridin-1-yl)-5-fluoro-N,N-diisopropylbenzamide] are 56 µL/min/mg, more than 40000 nM and 25 nM.
The corresponding values for `CC(C)(F)c1ncccc1-c1cc(F)ccc1-n1cc(C(=O)C2CN(C(=O)[C@H]3N[C@@H]4CC[C@H]3C4)C2)c2ccncc21` [Example 13, (1-((1R,3S,4S)-2-Azabicyclo[2.2.1]heptane-3-carbonyl)azetidin-3-yl)(1-(4-fluoro-2-(2-(2-fluoropropan-2-yl)pyridin-3-yl)phenyl)-1H-pyrrolo[2,3-c]pyridin-3-yl)methanone] are 119 µL/min/mg, 35800 nM and 34 nM.
Consider `CCN(C(=O)c1cc(F)ccc1-n1cc(C(=O)C2CN(C(=O)[C@H]3NC4CCC3CC4)C2)c2ccncc21)C(C)C` [Example 9, (S)-2-(3-(1-(2-Azabicyclo[2.2.2]octane-3-carbonyl)azetidine-3-carbonyl)-1H-pyrrolo[2,3-c]pyridin-1-yl)-N-ethyl-5-fluoro-N-isopropylbenzamide], for which, in data set [1] (pH 7.4, HLM CLint), the microsomal CLint at 1 µM was 27 µL/min/mg. Besides, in the data set on MV4;11 cells (Homo sapiens, MV4-11, 168 h), the IC50 is 100 nM.
For `O=C(c1cn(-c2ccc(F)cc2-c2cncnc2C2CC2)c2cnccc12)C1CCN(C(=O)[C@H]2N[C@@H]3CC[C@H]2C3)CC1` [Example 40, (1-((1R,3S,4S)-2-Azabicyclo[2.2.1]heptane-3-carbonyl)piperidin-4-yl)(1-(2-(4-cyclopropylpyrimidin-5-yl)-4-fluorophenyl)-1H-pyrrolo[2,3-c]pyridin-3-yl)methanone], in data set [1] (pH 7.4, HLM CLint), the microsomal CLint at 1 µM came out at 18 µL/min/mg. The IC50 against hERG was more than 40000 nM; in the data set with MV4;11 cells (Homo sapiens, MV4-11, 168 h) it was 37 nM.
With `Cc1c(C(=O)C2CCN(C(=O)[C@H]3NC[C@@H]4C[C@@H]43)CC2)c2ccncc2n1-c1ccc(F)cc1C(=O)N(CC(F)(F)F)C(C)C` (single isomer, unassigned) [Example 51-2], in data set [1], the “HLM CLint” value is 52 µL/min/mg. Moreover, the IC50 at hERG is more than 40000 nM; with MV4;11 cells (Homo sapiens, MV4-11, 168 h), 29 nM.
Take `CC(C)n1nccc1-c1cc(F)ccc1-n1cc(C(=O)C2CCN(C(=O)[C@H]3N[C@@H]4CC[C@H]3C4)CC2)c2ccncc21` [Example 36, (1-((1R,3S,4S)-2-Azabicyclo[2.2.1]heptane-3-carbonyl)piperidin-4-yl)(1-(4-fluoro-2-(1-isopropyl-1H-pyrazol-5-yl)phenyl)-1H-pyrrolo[2,3-c]pyridin-3-yl)methanone]: in data set [1] (pH 7.4, HLM CLint), the microsomal CLint at 1 µM worked out at 58 µL/min/mg. The IC50 against hERG was more than 40000 nM; with MV4;11 cells (Homo sapiens, MV4-11, 168 h) it was 43 nM.
As for `Cc1c(C(=O)[C@@H]2CCN(C(=O)[C@@H]3CC[C@@H](C)N3)[C@@H](C)C2)c2ccncc2n1-c1ccc(F)cc1C(=O)N(C(C)C)C(C)C` (stereo in doubt) [Example 64, 5-Fluoro-N,N-diisopropyl-2-(2-methyl-3-((2S,4RS)-2-methyl-1-((2S,5R)-5-methylpyrrolidine-2-carbonyl)piperidine-4-carbonyl)-1H-pyrrolo[2,3-c]pyridin-1-yl)benzamide], the microsomal CLint at 1 µM in data set [1] (pH 7.4, HLM CLint) worked out at 88 µL/min/mg. This compound also gave a concentration for half-maximal inhibition (IC50) at hERG of 32700 nM.
`CCN(C(=O)c1cc(F)ccc1-n1c(C)c(C(=O)C2CCN(C(=O)[C@H]3NC[C@@H]4C[C@@H]43)CC2)c2ccncc21)C(C)C` (single isomer, unassigned) [Example 48-1]: in data set [1], the “HLM CLint” value was found to be 69 µL/min/mg. Moreover, at hERG, the IC50 is more than 40000 nM.
In data set [1] (pH 7.4, HLM CLint), `CC(C)c1ccncc1-c1cc(F)ccc1-n1cc(C(=O)C2CCN(C(=O)[C@H]3N[C@@H]4CC[C@H]3C4)CC2)c2ccncc21` [Example 41, (1-((1R,3S,4S)-2-Azabicyclo[2.2.1]heptane-3-carbonyl)piperidin-4-yl)(1-(4-fluoro-2-(4-isopropylpyridin-3-yl)phenyl)-1H-pyrrolo[2,3-c]pyridin-3-yl)methanone] came in with a microsomal CLint at 1 µM of 180 µL/min/mg. The IC50 on hERG was more than 40000 nM.
Compound `CC(C)c1ncsc1-c1cc(F)ccc1-n1cc(C(=O)C2CN(C(=O)[C@H]3N[C@@H]4CC[C@H]3C4)C2)c2ccncc21.O=CO` [Example 12, (1-((1R,3S,4S)-2-Azabicyclo[2.2.1]heptane-3-carbonyl)azetidin-3-yl)(1-(4-fluoro-2-(4-isopropylthiazol-5-yl)phenyl)-1H-pyrrolo[2,3-c]pyridin-3-yl)methanone 1·formic acid] yielded a microsomal CLint at 1 µM in data set [1] (pH 7.4, HLM CLint) of 216 µL/min/mg. Besides, the IC50 at hERG is more than 40000 nM.
On the same counts, the results for `CCN(C(=O)c1cc(F)ccc1-n1c(C)c(C(=O)[C@@H]2CCN(C(=O)[C@@H]3CC[C@H](C)N3)[C@@H](C)C2)c2ccncc21)C(C)C` (stereo in doubt) [Example 63, N-Ethyl-5-fluoro-N-isopropyl-2-(2-methyl-3-((2S,4RS)-2-methyl-1-((2S,5S)-5-methylpyrrolidine-2-carbonyl)piperidine-4-carbonyl)-1H-pyrrolo[2,3-c]pyridine-1-yl)benzamide] are 63 µL/min/mg and more than 40000 nM.
With `CC(C)N(C(=O)c1cc(F)ccc1-n1cc(C(=O)C2CN(C(=O)[C@H]3NC4CCC3CC4)C2)c2ccncc21)C(C)C` [Example 6, (S)-2-(3-(1-(2-Azabicyclo[2.2.2]octane-3-carbonyl)azetidine-3-carbonyl)-1H-pyrrolo[2,3-c]pyridin-1-yl)-5-fluoro-N,N-diisopropylbenzamide], the microsomal CLint at 1 µM in data set [1] (pH 7.4, HLM CLint) was 40 µL/min/mg. Also, the half-inhibitory concentration (IC50) in the data set with MV4;11 cells (Homo sapiens, MV4-11, 168 h) turned out to be 46 nM.
With `Cc1c(C(=O)C2CCN(C(=O)[C@@H]3CCC(C)(C)N3)CC2)c2ccncc2n1-c1ccc(F)cc1C(=O)N(C(C)C)C(C)C` (single isomer, unassigned) [Example 56-1], in data set [1] (pH 7.4, HLM CLint), the microsomal CLint at 1 µM was 133 µL/min/mg. At hERG, this compound showed an IC50 of more than 40000 nM.
The corresponding values for `Cc1c(C(=O)[C@@H]2CCN(C(=O)[C@@H]3CC[C@H](C)N3)[C@@H](C)C2)c2ccncc2n1-c1ccc(F)cc1C(=O)N(C(C)C)C(C)C` (stereo in doubt) [Example 62, 5-Fluoro-N,N-diisopropyl-2-(2-methyl-3-((2S,4RS)-2-methyl-1-((2S,5S)-5-methylpyrrolidine-2-carbonyl)piperidine-4-carbonyl)-1H-pyrrolo[2,3-c]pyridin-1-yl)benzamide] are 12 µL/min/mg and more than 40000 nM.
On to `CCN(C(=O)c1cc(F)ccc1-n1c(C)c(C(=O)[C@@H]2CCN(C(=O)[C@@H]3CCC4(CC4)N3)[C@@H](C)C2)c2ccncc21)C(C)C` (single isomer, unassigned) [Example 52-1, N-Ethyl-5-fluoro-N-isopropyl-2-(2-methyl-3-((2R*,4S*)-2-methyl-1-((S)-4-azaspiro[2.4]heptane-5-carbonyl)piperidine-4-carbonyl)-1H-pyrrolo[2,3-c]pyridin-1-yl)benzamide], for which the microsomal CLint at 1 µM in data set [1] (setting [2]) was 150 µL/min/mg. Further, the concentration for half-maximal inhibition (IC50) in the data set on MV4;11 cells was determined as 22 nM.
In the case of `CCN(C(=O)c1cc(F)ccc1-n1c(C)c(C(=O)[C@@H]2CCN(C(=O)[C@@H]3CC[C@@H](C)N3)[C@@H](C)C2)c2ccncc21)C(C)C` (stereo in doubt) [Example 65, N-Ethyl-5-fluoro-N-isopropyl-2-(2-methyl-3-((2S,4RS)-2-methyl-1-((2S,5R)-5-methylpyrrolidine-2-carbonyl)piperidine-4-carbonyl)-1H-pyrrolo[2,3-c]pyridin-1-yl)benzamide], the microsomal CLint at 1 µM in data set [1] (pH 7.4, HLM CLint) worked out at 55 µL/min/mg. For the same compound, at hERG, the IC50 is more than 40000 nM.
As for `Cc1c(C(=O)C2CCN(C(=O)[C@H]3NC[C@@H]4C[C@@H]43)CC2)c2ccncc2n1-c1ccc(F)cc1C(=O)N(CC(F)(F)F)C(C)C` (single isomer, unassigned) [Example 51-1], in data set [1] (pH 7.4, HLM CLint), the microsomal CLint at 1 µM is 54 µL/min/mg. Besides, the IC50 against hERG is more than 40000 nM.
